Experimental data published in ChEMBL document CHEMBL6134864, “Discovery of FLT3-ITD Inhibitor Clifutinib: A Novel Biphenylacetylene Urea Derivative in Clinical Trials for the Treatment of Relapsed/Refractory FLT3-ITD+ Acute Myeloid Leukemia” (J Med Chem, 2025).

Tests used:
[1] = Half life in rat plasma at 5 mg/kg, po measured up to 24 hrs by LC-MS/MS analysis; format: ADME, organism-based
[2] = Clearance in rat plasma at 5 mg/kg, po measured up to 24 hrs by LC-MS/MS analysis; format: ADME, organism-based
[3] = Cmax in mouse plasma at 2 mg/kg, iv measured up to 24 hrs by LC-MS/MS analysis; format: ADME, organism-based
[4] = AUC last in mouse plasma at 10 mg/kg, po measured up to 24 hrs by LC-MS/MS analysis; format: ADME, organism-based
[5] = Half life in mouse plasma at 10 mg/kg, po measured up to 24 hrs by LC-MS/MS analysis; format: ADME, organism-based
[6] = AUC last in dog plasma at 1 mg/kg, iv measured up to 24 hrs by LC-MS/MS analysis; format: ADME, organism-based, Canis lupus familiaris
[7] = Clearance in dog plasma at 1 mg/kg, iv measured up to 24 hrs by LC-MS/MS analysis; format: ADME, organism-based, Canis lupus familiaris
[8] = Cmax in dog plasma at 5 mg/kg, po measured up to 24 hrs by LC-MS/MS analysis; format: ADME, organism-based, Canis lupus familiaris
[9] = AUC last in dog plasma at 5 mg/kg, po measured up to 24 hrs by LC-MS/MS analysis; format: ADME, organism-based, Canis lupus familiaris
[10] = Oral bioavailability in dog plasma at 5 mg/kg measured up to 24 hrs by LC-MS/MS analysis; format: ADME, organism-based, Canis lupus familiaris
[11] = Tmax in monkey plasma at 1 mg/kg, iv measured up to 24 hrs by LC-MS/MS analysis; format: ADME, organism-based, Macaca mulatta; settings: rhesus monkey
[12] = Clearance in monkey plasma at 1 mg/kg, iv measured up to 24 hrs by LC-MS/MS analysis; format: ADME, organism-based, Macaca mulatta; settings: rhesus monkey
[13] = Tmax in monkey plasma at 5 mg/kg, po measured up to 24 hrs by LC-MS/MS analysis; format: ADME, organism-based, Macaca mulatta; settings: rhesus monkey
[14] = AUC last in monkey plasma at 5 mg/kg, po measured up to 24 hrs by LC-MS/MS analysis; format: ADME, organism-based, Macaca mulatta; settings: rhesus monkey, in vivo
hERG (KCNH2) = hERG (KCNH2) (Homo sapiens, UniProt Q12809); test: Inhibition of human ERG expressed in CHO cells at 30 uM by manual patch clamp assay relative to control; format: toxicity, cell-based; settings: CHO cells expressing human ERG
Sequence of hERG (KCNH2) (Q12809 whole entry): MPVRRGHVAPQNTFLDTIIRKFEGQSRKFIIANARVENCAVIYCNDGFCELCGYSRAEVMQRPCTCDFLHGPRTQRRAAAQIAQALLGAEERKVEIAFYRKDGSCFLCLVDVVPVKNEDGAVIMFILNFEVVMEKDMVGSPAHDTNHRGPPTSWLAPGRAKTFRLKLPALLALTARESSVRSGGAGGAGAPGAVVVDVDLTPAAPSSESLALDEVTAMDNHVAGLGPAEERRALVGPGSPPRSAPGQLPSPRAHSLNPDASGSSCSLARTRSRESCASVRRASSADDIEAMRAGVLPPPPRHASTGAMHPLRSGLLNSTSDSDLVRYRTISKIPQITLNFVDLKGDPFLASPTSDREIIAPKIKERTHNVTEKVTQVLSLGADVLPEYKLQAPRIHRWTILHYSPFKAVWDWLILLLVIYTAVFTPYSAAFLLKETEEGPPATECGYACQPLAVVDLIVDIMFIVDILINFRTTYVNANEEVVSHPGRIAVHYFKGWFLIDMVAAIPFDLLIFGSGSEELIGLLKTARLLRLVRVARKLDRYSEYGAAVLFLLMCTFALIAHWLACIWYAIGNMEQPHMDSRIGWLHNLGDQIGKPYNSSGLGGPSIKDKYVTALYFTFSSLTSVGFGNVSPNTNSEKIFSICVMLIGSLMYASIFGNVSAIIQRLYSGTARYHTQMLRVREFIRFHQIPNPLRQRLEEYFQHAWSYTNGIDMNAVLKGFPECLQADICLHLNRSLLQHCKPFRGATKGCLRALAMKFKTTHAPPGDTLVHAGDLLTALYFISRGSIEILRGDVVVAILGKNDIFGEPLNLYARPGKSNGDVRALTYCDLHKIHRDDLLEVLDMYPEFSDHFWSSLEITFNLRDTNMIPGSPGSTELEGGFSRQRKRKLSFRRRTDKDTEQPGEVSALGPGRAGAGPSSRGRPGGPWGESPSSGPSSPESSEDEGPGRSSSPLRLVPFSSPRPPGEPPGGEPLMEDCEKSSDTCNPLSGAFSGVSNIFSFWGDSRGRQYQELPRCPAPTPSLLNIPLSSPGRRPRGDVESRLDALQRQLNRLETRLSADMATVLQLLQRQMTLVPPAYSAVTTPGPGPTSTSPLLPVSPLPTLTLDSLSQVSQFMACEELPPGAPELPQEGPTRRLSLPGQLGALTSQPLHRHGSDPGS

BaF3 [15] = test: Antiproliferative activity against mouse BaF3 cells harbouring FLT3-ITD-D835I mutant assessed as inhibition of cell growth incubated for 72 hrs by celltiter-glo luminescent cell viability assay; format: functional, cell-based; settings: BaF3, 72 h
BaF3 [16] = test: Antiproliferative activity against mouse BaF3 cells harbouring FLT3-ITD-Y842H mutant assessed as inhibition of cell growth incubated for 72 hrs by celltiter-glo luminescent cell viability assay; format: functional, cell-based; settings: BaF3, 72 h
BaF3 [17] = test: Antiproliferative activity against mouse BaF3 cells harbouring FLT3-ITD-F691L mutant assessed as inhibition of cell growth incubated for 72 hrs by celltiter-glo luminescent cell viability assay; format: functional, cell-based; settings: BaF3, 72 h
BaF3 [18] = test: Antiproliferative activity against mouse BaF3 cells harbouring FLT3-D835V mutant assessed as inhibition of cell growth incubated for 72 hrs by celltiter-glo luminescent cell viability assay; format: functional, cell-based; settings: BaF3, 72 h
BaF3 [19] = test: Antiproliferative activity against wild type mouse BaF3 cells assessed as inhibition of cell growth incubated for 72 hrs by celltiter-glo luminescent cell viability assay; format: functional, cell-based; settings: BaF3, 72 h
[20] = system: Receptor-type tyrosine-protein kinase FLT3 (Homo sapiens), P36888 [UNDEFINED MUTATION]; test: Inhibition of FLT3 in human MV4-11 cells harbouring FLT3-ITD mutant assessed as inhibition of FLT3 phosphorylation level measured after 2 hrs by Western blot analysis; format: cell-based; settings: dose 1-1000 nM
Sequence of Receptor-type tyrosine-protein kinase FLT3 (Homo sapiens), P36888 [UNDEFINED MUTATION] (P36888 whole entry, looked up, change not shown): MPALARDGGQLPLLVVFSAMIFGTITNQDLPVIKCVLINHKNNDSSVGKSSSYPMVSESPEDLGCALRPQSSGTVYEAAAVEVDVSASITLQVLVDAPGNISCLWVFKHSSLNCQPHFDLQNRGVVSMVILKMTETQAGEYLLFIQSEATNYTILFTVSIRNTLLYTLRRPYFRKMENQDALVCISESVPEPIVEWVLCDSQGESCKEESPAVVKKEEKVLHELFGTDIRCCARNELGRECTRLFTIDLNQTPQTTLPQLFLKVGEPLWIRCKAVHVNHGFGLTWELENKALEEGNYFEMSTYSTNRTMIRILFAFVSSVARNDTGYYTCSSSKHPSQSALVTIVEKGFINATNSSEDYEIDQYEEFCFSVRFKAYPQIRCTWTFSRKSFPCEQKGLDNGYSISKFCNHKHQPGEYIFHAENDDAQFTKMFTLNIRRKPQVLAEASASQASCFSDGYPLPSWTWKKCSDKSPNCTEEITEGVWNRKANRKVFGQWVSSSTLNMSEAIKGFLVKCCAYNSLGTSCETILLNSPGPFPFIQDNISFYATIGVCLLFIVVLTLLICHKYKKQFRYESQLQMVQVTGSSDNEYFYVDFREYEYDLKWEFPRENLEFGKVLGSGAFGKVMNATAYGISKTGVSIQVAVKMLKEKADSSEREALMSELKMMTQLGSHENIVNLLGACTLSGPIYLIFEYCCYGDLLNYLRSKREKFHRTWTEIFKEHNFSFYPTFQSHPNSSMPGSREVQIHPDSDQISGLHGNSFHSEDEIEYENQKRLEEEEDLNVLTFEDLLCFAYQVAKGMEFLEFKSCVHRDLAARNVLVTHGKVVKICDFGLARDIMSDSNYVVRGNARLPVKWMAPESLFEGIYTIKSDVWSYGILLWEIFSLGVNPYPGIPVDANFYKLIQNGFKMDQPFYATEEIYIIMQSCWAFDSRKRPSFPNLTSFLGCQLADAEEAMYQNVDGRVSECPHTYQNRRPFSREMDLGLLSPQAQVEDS

[21] = molecular target: Platelet-derived growth factor receptor beta (Homo sapiens, UniProt P09619); test: Inhibition of human PDGFR beta by biochemical kinase binding assay
Sequence of Platelet-derived growth factor receptor beta (P09619 whole entry): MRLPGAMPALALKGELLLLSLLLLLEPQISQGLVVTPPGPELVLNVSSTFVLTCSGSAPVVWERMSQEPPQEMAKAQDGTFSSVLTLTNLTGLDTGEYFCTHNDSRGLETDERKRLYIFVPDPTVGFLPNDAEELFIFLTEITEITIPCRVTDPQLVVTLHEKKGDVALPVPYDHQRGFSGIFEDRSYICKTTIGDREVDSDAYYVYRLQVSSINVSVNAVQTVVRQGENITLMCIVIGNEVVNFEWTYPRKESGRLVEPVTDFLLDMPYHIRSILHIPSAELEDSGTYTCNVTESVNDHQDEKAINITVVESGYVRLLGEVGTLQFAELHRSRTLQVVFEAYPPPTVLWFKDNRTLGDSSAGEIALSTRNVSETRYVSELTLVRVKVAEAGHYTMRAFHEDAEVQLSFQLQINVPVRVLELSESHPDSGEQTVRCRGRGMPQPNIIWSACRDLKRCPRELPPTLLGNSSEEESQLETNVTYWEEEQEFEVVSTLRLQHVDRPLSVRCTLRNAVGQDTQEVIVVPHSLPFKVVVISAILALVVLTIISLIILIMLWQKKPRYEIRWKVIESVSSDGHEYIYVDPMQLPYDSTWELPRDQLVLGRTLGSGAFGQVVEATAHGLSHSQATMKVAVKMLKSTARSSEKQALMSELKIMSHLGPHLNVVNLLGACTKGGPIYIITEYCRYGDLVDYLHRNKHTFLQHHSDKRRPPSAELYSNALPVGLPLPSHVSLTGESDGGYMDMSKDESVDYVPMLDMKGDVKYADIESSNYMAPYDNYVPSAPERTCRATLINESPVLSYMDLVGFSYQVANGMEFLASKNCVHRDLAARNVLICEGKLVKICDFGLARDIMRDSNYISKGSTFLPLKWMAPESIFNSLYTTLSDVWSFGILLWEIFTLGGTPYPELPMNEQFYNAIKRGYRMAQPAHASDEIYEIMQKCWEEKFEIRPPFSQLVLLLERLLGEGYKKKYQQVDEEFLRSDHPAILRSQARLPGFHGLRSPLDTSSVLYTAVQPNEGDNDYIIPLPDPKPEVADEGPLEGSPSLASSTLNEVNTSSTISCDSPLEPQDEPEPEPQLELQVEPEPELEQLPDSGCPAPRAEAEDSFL

[22] = molecular target: Proto-oncogene tyrosine-protein kinase receptor Ret (Homo sapiens, UniProt P07949, Y791F); test: Inhibition of human RET Y791F mutant by biochemical kinase binding assay
Sequence of Proto-oncogene tyrosine-protein kinase receptor Ret (P07949 29-1114 Y791F limits assumed): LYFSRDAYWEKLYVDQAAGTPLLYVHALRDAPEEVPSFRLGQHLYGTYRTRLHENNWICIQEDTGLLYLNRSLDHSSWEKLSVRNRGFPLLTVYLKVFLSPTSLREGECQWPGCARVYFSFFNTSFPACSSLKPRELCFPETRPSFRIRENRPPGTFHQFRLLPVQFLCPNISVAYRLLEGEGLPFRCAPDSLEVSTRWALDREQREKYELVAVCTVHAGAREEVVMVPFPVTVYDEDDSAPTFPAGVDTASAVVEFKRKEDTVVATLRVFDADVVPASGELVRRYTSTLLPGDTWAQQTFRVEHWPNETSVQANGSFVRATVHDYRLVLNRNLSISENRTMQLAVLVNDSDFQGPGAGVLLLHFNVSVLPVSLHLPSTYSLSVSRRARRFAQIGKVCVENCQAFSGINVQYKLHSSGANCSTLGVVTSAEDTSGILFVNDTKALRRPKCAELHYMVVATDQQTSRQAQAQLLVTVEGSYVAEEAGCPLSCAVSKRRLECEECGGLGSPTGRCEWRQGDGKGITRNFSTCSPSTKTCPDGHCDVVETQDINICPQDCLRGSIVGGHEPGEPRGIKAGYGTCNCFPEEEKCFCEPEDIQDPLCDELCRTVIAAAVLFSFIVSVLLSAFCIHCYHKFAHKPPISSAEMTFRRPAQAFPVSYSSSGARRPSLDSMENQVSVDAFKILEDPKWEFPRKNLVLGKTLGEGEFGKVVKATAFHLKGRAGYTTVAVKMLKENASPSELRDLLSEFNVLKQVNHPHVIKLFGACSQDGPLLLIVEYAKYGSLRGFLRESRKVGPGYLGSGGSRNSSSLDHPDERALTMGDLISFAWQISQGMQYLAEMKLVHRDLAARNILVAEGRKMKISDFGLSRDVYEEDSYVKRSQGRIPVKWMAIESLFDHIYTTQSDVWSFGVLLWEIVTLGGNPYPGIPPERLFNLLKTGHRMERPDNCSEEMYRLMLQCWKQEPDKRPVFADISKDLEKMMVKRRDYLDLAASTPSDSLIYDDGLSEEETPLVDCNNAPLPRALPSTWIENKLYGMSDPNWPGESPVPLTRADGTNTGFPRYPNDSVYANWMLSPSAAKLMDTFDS

Cytochrome P450 2C8 = Cytochrome P450 2C8 (Homo sapiens, UniProt P10632); test: Inhibition of CYP2C8 in human liver microsomes by UPLC-MS/MS analysis; format: ADME, Microsome
Sequence of Cytochrome P450 2C8 (P10632 whole entry): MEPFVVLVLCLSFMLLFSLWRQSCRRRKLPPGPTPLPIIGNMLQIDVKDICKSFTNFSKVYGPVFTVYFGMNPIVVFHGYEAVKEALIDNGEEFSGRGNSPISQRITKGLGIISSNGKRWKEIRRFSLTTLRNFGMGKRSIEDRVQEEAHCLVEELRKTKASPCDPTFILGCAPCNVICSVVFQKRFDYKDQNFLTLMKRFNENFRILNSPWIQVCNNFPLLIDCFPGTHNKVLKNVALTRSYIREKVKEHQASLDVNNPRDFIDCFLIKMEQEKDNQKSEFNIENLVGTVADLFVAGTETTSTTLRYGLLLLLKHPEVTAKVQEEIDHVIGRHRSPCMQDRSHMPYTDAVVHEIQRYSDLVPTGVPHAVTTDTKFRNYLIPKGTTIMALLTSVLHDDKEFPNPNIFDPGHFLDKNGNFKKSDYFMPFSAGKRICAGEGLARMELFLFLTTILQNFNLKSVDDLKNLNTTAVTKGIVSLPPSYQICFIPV

[23] = Toxicity in NOD/SCID mouse assessed as effect on body weight at 20 mg/kg/day, po measured for 7 days; format: organism-based; settings: in vivo, 168 h, time 7 day
[24] = Toxicity in NOD/SCID mouse assessed as effect on body weight loss at 0.5 to 4.5 mg/kg/day, po administered for 21 days and measured for 31 days post dose; format: organism-based; settings: in vivo, 504 h, dose 0.5-4.5 mg/kg/day, time 21 day
[25] = Toxicity in NOD/SCID mouse assessed as observable signs of toxicity at 0.5 to 4.5 mg/kg/day, po administered for 21 days and measured for 31 days post dose; format: organism-based; settings: in vivo, 504 h, dose 0.5-4.5 mg/kg/day, time 21 day
MOLM-13 = test: Antitumor activity against human MOLM-13 cells xenografted in NOD/SCID mouse model assessed as tumor growth inhibition at 4.5 mg/kg/day, po by caliper analysis relative to control; format: functional; settings: read-out: TGI
[26] = Tmax in NOD/SCID mouse plasma xenografted with human MV4-11 cells at 0.5 mg/kg, po measured up to 24 hrs by LC-MS/MS analysis; format: ADME, organism-based
[27] = Tmax in NOD/SCID mouse tumor xenografted with human MV4-11 cells at 0.5 mg/kg, po measured up to 24 hrs by LC-MS/MS analysis; format: ADME, organism-based, Neoplasm
[28] = Tmax in NOD/SCID mouse tumor xenografted with human MV4-11 cells at 4.5 mg/kg, po measured up to 24 hrs by LC-MS/MS analysis; format: ADME, organism-based, Neoplasm
[29] = Cmax in NOD/SCID mouse plasma xenografted with human MV4-11 cells at 4.5 mg/kg, po measured up to 24 hrs by LC-MS/MS analysis; format: ADME, organism-based
[30] = AUC (0 to t) in NOD/SCID mouse plasma xenografted with human MV4-11 cells at […], po measured up to 24 hrs by LC-MS/MS analysis; format: ADME, organism-based; settings: dose 1.5 mg/kg
[31] = AUC (0 to t) in NOD/SCID mouse plasma xenografted with human MV4-11 cells at 4.5 mg/kg, po measured up to 24 hrs by LC-MS/MS analysis; format: ADME, organism-based
[32] = AUC (0 to t) in NOD/SCID mouse tumor xenografted with human MV4-11 cells at […], po measured up to 24 hrs by LC-MS/MS analysis; format: ADME, organism-based, Neoplasm; settings: dose 1.5 mg/kg
HL-60 = test: cells; settings: Homo sapiens, HL-60, 72 h
Description: Antiproliferative activity against human HL-60 cells assessed as inhibition of cell growth incubated for 72 hrs by celltiter-glo luminescent cell viability assay

NCI-H226 = test: cells; settings: Homo sapiens, NCI-H226, 72 h
Description: Antiproliferative activity against human NCI-H226 cells assessed as inhibition of cell growth incubated for 72 hrs by celltiter-glo luminescent cell viability assay

A2780 = test: cells; settings: Homo sapiens, A2780, 72 h
Description: Antiproliferative activity against human A2780 cells assessed as inhibition of cell growth incubated for 72 hrs by celltiter-glo luminescent cell viability assay

CAKI-1 = test: cells; settings: Homo sapiens, CAKI-1, 72 h
Description: Antiproliferative activity against human CAKI-1 cells assessed as inhibition of cell growth incubated for 72 hrs by celltiter-glo luminescent cell viability assay

U-87 MG = test: cells; settings: Homo sapiens, 72 h
Description: Antiproliferative activity against human U-87 MG cells assessed as inhibition of cell growth incubated for 72 hrs by celltiter-glo luminescent cell viability assay

BaF3 [33] = test: cells; settings: Mus musculus, BaF3, 72 h

half-life [1]: 4.45 h
CL/F [2]: 6.67 mL/min/kg
Cmax [3]: 1820 ng/mL
AUC(0-t) at 24 h [4]: 4380 ng·h/mL
half-life [5]: 1.73 h
AUC(0-t) at 24 h [6]: 1290 ng·h/mL
clearance [7]: 11.3 mL/min/kg
Cmax [8]: 520 ng/mL
AUC(0-t) at 24 h [9]: 4870 ng·h/mL
bioavailability [10]: 71.9%
Tmax [11]: 4.98 min
clearance [12]: 1.35 mL/min/kg
Tmax [13]: 4 h
AUClast [14]: 10800 ng·h/mL
IC50 (BaF3 [15]): 302 nM
IC50 (BaF3 [16]): 38 nM
IC50 (BaF3 [17]): 154 nM
IC50 (BaF3 [18]): 37.4 nM
IC50 (BaF3 [19]): > 1000 nM
inhibition [20]: Dose-dependent-effect
IC50 [21]: 1630 nM
IC50 [22]: 119 nM
IC50 (Cytochrome P450 2C8): > 33300 nM
Tmax [26]: 1 h
Tmax [27]: 3 h
Tmax [28]: 6 h
Cmax [29]: 199 ng/mL
AUC(0-t) at 24 h [30]: 208 ng·h/mL
AUC(0-t) at 24 h [31]: 908 ng·h/mL
AUC(0-t) at 24 h [32]: 1470 ng·h/mL
IC50 (HL-60): > 10000 nM
IC50 (NCI-H226): > 10000 nM
IC50 (A2780): 7200 nM
IC50 (CAKI-1): > 10000 nM
IC50 (U-87 MG): > 10000 nM
IC50 (BaF3 [33]): 2.9 nM
SMILES: CC(C)(C)c1cc(NC(=O)Nc2ccc(C#Cc3ccc(OCCCN4CCOCC4)cc3)cc2)no1
inhibition at 30 µM (hERG (KCNH2)): 22.8%
Activity [23]: Non-toxic
Activity [24]: Non-toxic
Activity [25]: Non-toxic
inhibition in vivo at 4.5 mg/kg/day (MOLM-13): 94%
